The source of these data is patent US20190031717A1, “MULTI-FUNCTIONAL FUSION POLYPEPTIDE, PREPARATION METHOD THEREOF, AND APPLICATION OF SAME” (NANJING ANJI BIOLOGICAL TECHNOLOGY CO., LTD, priority 2016, published 2019).

Holding throughout (assay type): cell-based, human
What all share (parameters): concentration or dose not given beside the values

The subject of one assay is Hemangioma. In words: MTT assay, tumor cells. The following applies: 48 hours, mean ± SD. The protocol:
(§1) A variety of human tumor cells were cultured in a 37° C., 5% (volume fraction) CO2 incubator to a density of 90% or more, collected by trypsinization, resuspended in a culture medium and counted under a microscope, and the cells were harvested. The concentration was adjusted to 2.0×10^4 cells/mL, the cell suspension was inoculated into a 96-well plate at 100 μL per well and cultured overnight at 37° C. in a 5% (volume fraction) CO2 incubator. After the cells were completely adhered, the polypeptides of the present invention were added as drug-administered groups, and a culture solution containing no drug was used as a blank control group, and the culture solution was diluted to each predetermined concentration. Each dilution was separately added to a 96-well plate at 100 μL per well and incubated for 48 hours at 37° C. in a 5% (volume fraction) CO2 incubator. 20 μL of 5 mg/mL MTT was added to each well of a 96-well plate and incubation was continued for 4 h. The medium was aspirated and dissolved in 100 μL of DMSO per well. The absorbance was measured with a microplate reader at a detection wavelength of 570 nm and a reference wavelength of 630 nm, and the growth inhibition rate was calculated as follows: tumor growth inhibition rate (%)=(1−absorbance value of the administered group/unadministered group absorbance value)×100%, and the experiment was repeated 3 times independently. The results obtained from the test were expressed as mean±standard deviation, and the tumor growth inhibition rate of the unadministered group was 0. The results in Table 7 indicate that the polypeptides of the present invention have a significant inhibitory effect on the growth of various tumors (FIG. 6).
For orientation: Formazan colour is commonly taken as a measure of viable cells.

Another assay concerns sarcoma. In words: MTT assay, tumor cells. The conditions noted are these: 48 hours, mean ± SD. The protocol: as §1
In a further assay the test system is Esophageal cancer. In words: MTT assay, tumor cells. The conditions noted are these: 48 hours, mean ± SD. The protocol: as §1
The test system of the next assay is Brain tumor. In words: MTT assay, tumor cells. The conditions noted are these: 48 hours, mean ± SD. The protocol: as §1
The next assay concerns Head and neck cancer. In words: MTT assay, tumor cells. The conditions noted are these: 48 hours, mean ± SD. The protocol:
as §1

The next assay relates to Ovarian cancer. In words: MTT assay, tumor cells. The following applies: 48 hours, mean ± SD. The protocol: as §1
The test system of the next assay is Gastric cancer. In words: MTT assay, tumor cells. The following applies: 48 hours, mean ± SD. The protocol:
as §1

A further assay deals with Prostate cancer. In words: MTT assay, tumor cells. The conditions noted are these: 48 hours, mean ± SD. The protocol: as §1
The subject of another assay is Uterine cancer. In words: MTT assay, tumor cells. The following applies: 48 hours, mean ± SD. The protocol: as §1
For another assay, the system named is Kidney cancer. In words: MTT assay, tumor cells. The following applies: 48 hours, mean ± SD. The protocol:
as §1

For a further assay, the system named is Liver cancer. In words: MTT assay, tumor cells. The conditions noted are these: 48 hours, mean ± SD. The protocol:
as §1

The next assay relates to Bladder Cancer. In words: MTT assay, tumor cells. The following applies: 48 hours, mean ± SD. The protocol: as §1
Another assay has as its system Colorectal cancer. In words: MTT assay, tumor cells. The following applies: 48 hours, mean ± SD. The protocol: as §1
A further assay concerns Cervical cancer. In words: MTT assay, tumor cells. The conditions noted are these: 48 hours, mean ± SD. The protocol: as §1
Another assay concerns Breast cancer. In words: MTT assay, tumor cells. The following applies: 48 hours, mean ± SD. The protocol: as §1
For a further assay, the system named is Melanoma. In words: MTT assay, tumor cells. The following applies: 48 hours, mean ± SD. The protocol: as §1
The next assay has as its system Pancreatic cancer. In words: MTT assay, tumor cells. The conditions noted are these: 48 hours, mean ± SD. The protocol:
as §1

For another assay, the system named is Thyroid cancer. In words: MTT assay, tumor cells. The following applies: 48 hours, mean ± SD. The protocol:
as §1

The next assay concerns Adenocarcinoma. In words: MTT assay, lung cancer tumor cells. The following applies: 48 h, mean ± SD.
The test system of a further assay is Small Cell Lung Cancer. In words: MTT assay, lung cancer tumor cells. The following applies: 48 h, mean ± SD.
Another assay relates to Squamous cell carcinoma. In words: MTT assay, lung cancer tumor cells. The conditions noted are these: 48 h, mean ± SD.

On to “Ile-Val-Arg-Arg-Ala-Asp-Arg-Ala-Ala-Val-Pro-Gly-Gly-Gly-Gly-Arg-Gly-Asp-Gly-Gly-Gly-Gly-Pro-(D-Pyr)-(D-Cys)-Bip-Arg-Gly-Glu [Polypeptide V]”, for which the “tumor growth inhibition rate, MTT Assay” value in the assay with Hemangioma is listed as 87.49 ± 23.46%; in the assay with sarcoma, 56.55 ± 15.16%; with Esophageal cancer it was 56.43 ± 15.13%; in the assay on Brain tumor it was 58.65 ± 15.73%; in the assay on Head and neck cancer, 41.65 ± 11.17%; in the assay with Ovarian cancer, 77.90 ± 20.89%. Further, the “tumor growth inhibition rate, MTT Assay” value in the assay on Gastric cancer stood at 55.67 ± 18.63%; with Prostate cancer, 69.32 ± 22.29%; in the assay on Uterine cancer it was 66.86 ± 21.63%; with Kidney cancer, 51.41 ± 17.48%; in the assay on Liver cancer it was 62.54 ± 16.77%; with Bladder Cancer it was 44.49 ± 11.93%. Moreover, the “tumor growth inhibition rate, MTT Assay” value was 73.08 ± 19.60% in the assay with Colorectal cancer; 64.58 ± 24.72% in the assay with Cervical cancer; 78.51 ± 21.05% in the assay on Breast cancer; 48.77 ± 13.08% in the assay with Melanoma; 63.15 ± 20.63% in the assay on Pancreatic cancer; 53.71 ± 14.40% with Thyroid cancer. In addition, the figures for the “tumor growth inhibition rate, MTT Assay” value in the assay on Adenocarcinoma, in the assay with Small Cell Lung Cancer and in the assay with Squamous cell carcinoma were 75.52 ± 15.25%, 60.60 ± 14.68% and 57.18 ± 10.83%, respectively.
With “Pro-(D-Pyr)-(D-Cys)-Bip-Arg-Gly-Glu-Gly-Gly-Gly-Gly-Arg-Gly-Asp-Gly-Gly-Gly-Gly-Ile-Val-Arg-Arg-Ala-Asp-Arg-Ala-Ala-Val-Pro [Polypeptide VI]”, the “tumor growth inhibition rate, MTT Assay” value in the assay with Hemangioma is on record as 91.30 ± 20.71%; with sarcoma, 59.01 ± 13.39%; with Esophageal cancer it was 58.88 ± 13.36%; in the assay on Brain tumor, 61.20 ± 13.88%; with Head and neck cancer, 43.46 ± 9.86%; with Ovarian cancer it was 81.29 ± 18.44%. In addition, the “tumor growth inhibition rate, MTT Assay” value in the assay on Gastric cancer turned out to be 58.09 ± 16.44%; in the assay on Prostate cancer, 72.33 ± 19.68%; in the assay on Uterine cancer, 69.77 ± 19.09%; in the assay on Kidney cancer, 53.64 ± 15.44%; in the assay on Liver cancer, 65.26 ± 14.80%; with Bladder Cancer, 46.43 ± 10.53%. Further, the “tumor growth inhibition rate, MTT Assay” value is listed as 76.26 ± 17.30% with Colorectal cancer; 67.39 ± 21.82% in the assay with Cervical cancer; 81.92 ± 18.58% in the assay on Breast cancer; 50.89 ± 11.54% in the assay on Melanoma; 65.89 ± 18.21% in the assay on Pancreatic cancer; 56.04 ± 12.71% in the assay with Thyroid cancer. For the same substance, the results for the “tumor growth inhibition rate, MTT Assay” value in the assay with Adenocarcinoma, in the assay with Small Cell Lung Cancer and in the assay on Squamous cell carcinoma were 78.80 ± 13.47%, 63.23 ± 12.96% and 59.67 ± 9.56%, respectively.
On to “Arg-Gly-Asp-Gly-Gly-Gly-Gly-Pro-(D-Pyr)-(D-Cys)-Bip-Arg-Gly-Glu-Gly-Gly-Gly-Gly-Ile-Val-Arg-Arg-Ala-Asp-Arg-Ala-Ala-Val-Pro [Polypeptide III]”, for which the “tumor growth inhibition rate, MTT Assay” value was 85.21 ± 25.36% in the assay on Hemangioma; 74.75 ± 16.39% with sarcoma; 74.58 ± 16.36% in the assay with Esophageal cancer; 77.52 ± 17.00% with Brain tumor; 55.05 ± 12.07% in the assay on Head and neck cancer; 75.87 ± 22.58% in the assay on Ovarian cancer. Besides, the “tumor growth inhibition rate, MTT Assay” value with Gastric cancer came to 73.58 ± 20.14%; in the assay with Prostate cancer, 73.54 ± 24.09%; in the assay with Uterine cancer, 70.93 ± 23.38%; in the assay on Kidney cancer, 67.94 ± 18.90%; with Liver cancer, 82.66 ± 18.13%; with Bladder Cancer, 58.81 ± 12.90%. The “tumor growth inhibition rate, MTT Assay” value in the assay on Colorectal cancer is recorded as 96.60 ± 21.18%; in the assay with Cervical cancer, 68.52 ± 26.72%; in the assay with Breast cancer, 90.11 ± 22.76%; in the assay with Melanoma it was 64.46 ± 14.14%; in the assay with Pancreatic cancer it was 66.99 ± 22.30%; in the assay with Thyroid cancer, 70.99 ± 15.57%. The “tumor growth inhibition rate, MTT Assay” value in the assay with Adenocarcinoma stood at 93.25 ± 16.99%; in the assay with Small Cell Lung Cancer, 74.83 ± 13.63%; in the assay with Squamous cell carcinoma, 70.61 ± 12.86%.
In the case of “Ile-Val-Arg-Arg-Ala-Asp-Arg-Ala-Ala-Val-Pro-Gly-Gly-Gly-Gly-Pro-(D-Pyr)-(D-Cys)-Bip-Arg-Gly-Glu-Gly-Gly-Gly-Gly-Arg-Gly-Asp [Polypeptide II]”, the “tumor growth inhibition rate, MTT Assay” value with Hemangioma is reported as 84.45 ± 23.67%; with sarcoma, 64.42 ± 15.30%; in the assay with Esophageal cancer, 64.28 ± 15.27%; with Brain tumor it was 66.81 ± 15.87%; in the assay on Head and neck cancer it was 47.44 ± 11.27%; in the assay with Ovarian cancer, 88.74 ± 21.07%. The “tumor growth inhibition rate, MTT Assay” value with Gastric cancer came out at 63.41 ± 18.79%; in the assay on Prostate cancer, 78.96 ± 22.49%; in the assay on Uterine cancer it was 64.54 ± 21.82%; with Kidney cancer, 58.56 ± 17.64%; with Liver cancer, 71.24 ± 16.92%; with Bladder Cancer, 50.68 ± 12.04%. Further, the “tumor growth inhibition rate, MTT Assay” value in the assay on Colorectal cancer was determined as 83.25 ± 19.77%; with Cervical cancer it was 62.34 ± 24.94%; in the assay on Breast cancer, 89.43 ± 21.24%; in the assay on Melanoma, 55.55 ± 13.19%; with Pancreatic cancer, 71.93 ± 20.82%; with Thyroid cancer it was 61.18 ± 14.53%. Also, the “tumor growth inhibition rate, MTT Assay” value with Adenocarcinoma is reported as 86.03 ± 15.85%; with Small Cell Lung Cancer, 69.03 ± 12.72%; in the assay with Squamous cell carcinoma it was 65.14 ± 12.00%.
